Laboratory results taken from ChEMBL document CHEMBL4619822, “Novel Cyclic Tetramer Compounds as PCSK9 Inhibitors for Treating Metabolic Disorders” (ACS Med Chem Lett, 2020).

Target: Proprotein convertase subtilisin/kexin type 9 (Homo sapiens) (UniProt Q8NBP7)
Assay: Inhibition of human PCSK9 by Alexa Fluor 647 staining based TR-FRET assay relative to control

Sequence of Proprotein convertase subtilisin/kexin type 9 (Homo sapiens) (Q8NBP7 31-152 limits assumed): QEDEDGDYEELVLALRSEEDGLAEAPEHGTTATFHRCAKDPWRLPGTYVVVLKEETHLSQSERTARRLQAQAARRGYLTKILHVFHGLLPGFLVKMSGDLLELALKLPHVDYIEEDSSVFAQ
Sequence of Proprotein convertase subtilisin/kexin type 9 (Homo sapiens) (Q8NBP7 153-692 limits assumed): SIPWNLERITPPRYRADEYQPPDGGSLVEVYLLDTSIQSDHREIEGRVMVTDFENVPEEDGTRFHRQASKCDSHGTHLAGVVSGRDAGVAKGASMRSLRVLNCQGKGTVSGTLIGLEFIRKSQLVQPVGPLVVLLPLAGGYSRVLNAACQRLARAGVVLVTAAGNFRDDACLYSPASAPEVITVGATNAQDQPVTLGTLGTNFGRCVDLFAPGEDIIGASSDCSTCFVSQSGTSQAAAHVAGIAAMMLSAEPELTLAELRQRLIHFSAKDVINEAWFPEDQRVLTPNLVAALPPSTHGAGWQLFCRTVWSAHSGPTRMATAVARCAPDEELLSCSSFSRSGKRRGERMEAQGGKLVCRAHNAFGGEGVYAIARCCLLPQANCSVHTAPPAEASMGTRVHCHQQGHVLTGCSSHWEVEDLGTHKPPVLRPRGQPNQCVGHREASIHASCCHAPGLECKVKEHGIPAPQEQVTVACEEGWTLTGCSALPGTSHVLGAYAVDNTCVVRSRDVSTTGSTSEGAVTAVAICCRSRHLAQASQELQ

COC[C@@H]1NC(=O)[C@H](C)N(Cc2ncc(Cl)cc2Oc2ccc(-c3cnc(CN(C)C)n3C)cc2)C(=O)C[C@@H](Cc2ccccc2)C(=O)N2CCC[C@@](Cc3ccc(Cl)cc3)(C2)NC1=O
Imax: 103%

COC[C@@H]1NC(=O)[C@H](C)N(Cc2ccc(Cl)cc2Oc2ccc(-c3cnc(CN(C)C)n3C)nc2)C(=O)C[C@@H](CC(F)(F)F)C(=O)N2CCC[C@@](Cc3ccc(Cl)cc3)(C2)N(C)C1=O
Imax: 113%

CNCc1ncc(-c2ccc(Oc3cc(Cl)ccc3CN3C(=O)C[C@@H](Cc4ccccc4)C(=O)N4CCC[C@@](Cc5ccc(Cl)cc5)(C4)NC(=O)[C@H](CO)NC(=O)[C@@H]3C)cc2)n1C
Imax: 105%

CNCc1ncc(-c2ccc(Oc3cc(Cl)cc(F)c3CN3C(=O)C[C@@H](CC(F)(F)F)C(=O)N4CCC[C@@](Cc5ccc(Cl)cc5)(C4)N(C)C(=O)[C@H](COC)NC(=O)[C@@H]3C)cc2)n1C
Imax: 105%

C[C@H]1C(=O)N[C@@H](CO)C(=O)N[C@@]2(Cc3ccc(Cl)cc3)CCCN(C2)C(=O)[C@H](CC2CC2)CC(=O)N1Cc1c(F)cc(Cl)cc1Oc1ccc(-c2cnc(CNC3CCC3)n2C)cc1
Imax: 100%

C[C@H]1C(=O)N[C@@H](CO)C(=O)N[C@@]2(Cc3ccc(Cl)cc3)CCCN(C2)C(=O)[C@H](Cc2ccccc2)CC(=O)N1Cc1ccc(Cl)c(F)c1Oc1ccc(-c2cnc(CN(C)C)n2C)cc1
Imax: 101%
